Measured values reported in patent US7138361B2, “Herbicidal heterocycles” (E. I. du Pont de Nemours and Company, priority 2000, dated 2006).

Assays:
Test in all cases: Test C preemergence
Assay type in all cases: in vivo
Sunflower [1] = settings: Rate 62 g/ha, scale 0 to 100
[2] = system: yellow nutsedge (Cyperus esculentus); settings: for Plant response rating (0 to 100), Nutsedge: Rate 500 g/ha, visual evaluation after 12 to 14 days
How it was run: (§1)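 Pre- and postemergence treatments used a non-phytotoxic solvent/surfactant formulation; post-treated plants measured 2 to 18 cm. Greenhouse hold 12–14 d; % control estimated visually relative to controls.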

corn (Zea mays) = settings: for Plant response rating (0 to 100), Corn: Rate 500 g/ha, visual evaluation after 12 to 14 days
How it was run: as §1

[3] = system: morningglory (Ipomoea hederacea)
How it was run: as §1

Sunflower [4] = settings: Rate 125 g/ha; scale 0 to 100, 0 no effect, 100 complete control
[5] = system: woolly cupgrass (Eriochloa villosa); settings: for Plant response rating (0 to 100), Cupgrass, Woolly: Rate 500 g/ha, visual evaluation after 12 to 14 days
How it was run: as §1

[6] = system: johnsongrass (Sorghum halepense); settings: for Plant response rating (0 to 100), Johnsongrass: Rate 500 g/ha, visual evaluation after 12 to 14 days
How it was run: as §1

Nightshade [7] = system: Nightshade
kochia (Kochia scoparia) = settings: for Plant response rating (0 to 100), Kochia: Rate 500 g/ha, visual evaluation after 12 to 14 days
How it was run: as §1

[8] = system: common ragweed (Ambrosia elatior); settings: for Plant response rating (0 to 100), Ragweed, Common: Rate 500 g/ha, visual evaluation after 12 to 14 days
How it was run: as §1

soybean (Glycine max) = settings: for Plant response rating (0 to 100), Soybean: Rate 500 g/ha, visual evaluation after 12 to 14 days
How it was run: as §1

[9] = system: crabgrass (Digitaria sanguinalis); settings: for Plant response rating (0 to 100), Crabgrass: Rate 500 g/ha, visual evaluation after 12 to 14 days
How it was run: as §1

[10] = system: lambsquarters (Chenopodium album); settings: for Plant response rating (0 to 100), Lambsquarters: Rate 500 g/ha, visual evaluation after 12 to 14 days
How it was run: as §1

[11] = system: velvetleaf (Abutilon theophrasti); settings: for Plant response rating (0 to 100), Velvetleaf: Rate 500 g/ha, visual evaluation after 12 to 14 days
How it was run: as §1

[12] = system: bermudagrass (Cynodon dactylon); settings: for Plant response rating (0 to 100 where 0 is no effect and 100 is complete control), Bermudagrass: Rate 500 g/ha, visual evaluation after 12 to 14 days
How it was run: as §1

[13] = system: cocklebur (Xanthium strumarium); settings: preemergence; for Plant response rating (0 to 100), Cocklebur: Rate 500 g/ha, visual evaluation after 12 to 14 days
How it was run: as §1

[14] = system: Surinam grass (Brachiaria decumbens); settings: for Plant response rating (0 to 100), Surinam grass: Rate 500 g/ha, visual evaluation after 12 to 14 days
How it was run: as §1

[15] = system: pigweed (Amaranthus retroflexus); settings: for Plant response rating (0 to 100), Pigweed: Rate 500 g/ha, visual evaluation after 12 to 14 days
How it was run: as §1

[16] = system: giant foxtail (Setaria faberii); settings: for Plant response rating (0 to 100), Foxtail, Giant: Rate 500 g/ha, visual evaluation after 12 to 14 days
How it was run: as §1

[17] = system: goosegrass (Eleusine indica); settings: for Plant response rating (0 to 100), Goosegrass: Rate 500 g/ha, visual evaluation after 12 to 14 days
How it was run: as §1

Sunflower [18] = settings: Rate 250 g/ha, scale 0 to 100, 0 no effect, 100 complete control
Nightshade [19] = settings: Rate 500 g/ha, visual evaluation after 12 to 14 days
[20] = Rate 125 g/ha, scale 0 to 100, 0 no effect, 100 complete control
[21] = preemergence, Rate 62 g/ha, scale 0 to 100
[22] = preemergence, Rate 250 g/ha, scale 0 to 100, 0 no effect, 100 complete control
[23] = Rate 250 g/ha, scale 0 to 100, 0 no effect, 100 complete control

CCC(C)c1ccn(C2CCN(c3ccc(Cl)c(OC)c3)C2=O)n1 (stereo not shown) [Compound 119]
Plant response rating, Sunflower (Sunflower [1]): 40 | Plant response rating, Nutsedge [2, 20]: 20 | Plant response rating, Nutsedge [2, 21]: 0 | Plant response rating (0 to 100), Nutsedge ([2]; preemergence): 30 | Plant response rating, Nutsedge [2, 22]: 30 | Plant response rating, Corn (corn (Zea mays); [20]): 30 | Plant response rating, Corn (corn (Zea mays); [21]): 30 | Plant response rating (0 to 100), Corn (corn (Zea mays); preemergence): 90 | Plant response rating, Corn (corn (Zea mays); [22]): 60 | Plant response rating, Morningglory [3, 20]: 90 | Plant response rating, Morningglory [3, 21]: 60 | Plant response rating (0 to 100), Morningglory ([3]; preemergence, Rate 500 g/ha, visual evaluation after 12 to 14 days): 100 | Plant response rating, Morningglory [3, 22]: 100 | Plant response rating, Sunflower (Sunflower [4]): 40 | Plant response rating, Cupgrass, Woolly [5, 20]: 100 | Plant response rating, Cupgrass, Woolly [5, 21]: 100 | Plant response rating (0 to 100), Cupgrass, Woolly ([5]; preemergence): 100 | Plant response rating, Cupgrass, Woolly [5, 22]: 100 | Plant response rating, Johnsongrass [6, 20]: 100 | Plant response rating, Johnsongrass [6, 21]: 90 | Plant response rating (0 to 100), Johnsongrass ([6]; preemergence): 100 | Plant response rating, Johnsongrass [6, 22]: 100 | Plant response rating, Nightshade (Nightshade [7]; Rate 62 g/ha, scale 0 to 100): 100 | Plant response rating, Nightshade (Nightshade [7]; [20]): 100 | Plant response rating, Nightshade (Nightshade [7]; [23]): 100 | Plant response rating, Kochia (kochia (Kochia scoparia); [20]): 100 | Plant response rating, Kochia (kochia (Kochia scoparia); [21]): 100 | Plant response rating (0 to 100), Kochia (kochia (Kochia scoparia); preemergence): 100 | Plant response rating, Kochia (kochia (Kochia scoparia); [22]): 100 | Plant response rating, Ragweed, Common [8, 20]: 100 | Plant response rating, Ragweed, Common [8, 21]: 100 | Plant response rating (0 to 100), Ragweed, Common ([8]; preemergence): 100 | Plant response rating, Ragweed, Common [8, 22]: 100 | Plant response rating, Soybean (soybean (Glycine max); [20]): 80 | Plant response rating, Soybean (soybean (Glycine max); [21]): 60 | Plant response rating (0 to 100), Soybean (soybean (Glycine max); preemergence): 100 | Plant response rating, Soybean (soybean (Glycine max); [22]): 100 | Plant response rating, Crabgrass [9, 20]: 100 | Plant response rating, Crabgrass [9, 21]: 100 | Plant response rating (0 to 100), Crabgrass ([9]; preemergence): 100 | Plant response rating, Crabgrass [9, 22]: 100 | Plant response rating, Lambsquarters [10, 20]: 100 | Plant response rating, Lambsquarters [10, 21]: 100 | Plant response rating (0 to 100), Lambsquarters ([10]; preemergence): 100 | Plant response rating, Lambsquarters [10, 22]: 100 | Plant response rating, Velvetleaf [11, 20]: 100 | Plant response rating, Velvetleaf [11, 21]: 60 | Plant response rating (0 to 100), Velvetleaf ([11]; preemergence): 100 | Plant response rating, Velvetleaf [11, 22]: 100 | Plant response rating, Bermudagrass [12, 20]: 100 | Plant response rating, Bermudagrass [12, 21]: 100 | Plant response rating (0 to 100 where 0 is no effect and 100 is complete control), Bermudagrass ([12]; preemergence): 100 | Plant response rating, Bermudagrass [12, 22]: 100 | Plant response rating (0 to 100), Cocklebur [13]: 50 | Plant response rating, Cocklebur [13, 23]: 20 | Plant response rating, Surinam grass [14, 20]: 100 | Plant response rating, Surinam grass [14, 21]: 100 | Plant response rating (0 to 100), Surinam grass ([14]; preemergence): 100 | Plant response rating, Surinam grass [14, 22]: 100 | Plant response rating, Pigweed [15, 20]: 50 | Plant response rating, Pigweed [15, 21]: 50 | Plant response rating (0 to 100), Pigweed ([15]; preemergence): 100 | Plant response rating, Pigweed [15, 22]: 90 | Plant response rating, Foxtail, Giant [16, 20]: 100 | Plant response rating, Foxtail, Giant [16, 21]: 50 | Plant response rating (0 to 100), Foxtail, Giant ([16]; preemergence): 100 | Plant response rating, Foxtail, Giant [16, 22]: 90 | Plant response rating, Goosegrass [17, 20]: 100 | Plant response rating, Goosegrass [17, 21]: 100 | Plant response rating (0 to 100), Goosegrass ([17]; preemergence): 100 | Plant response rating, Goosegrass [17, 22]: 100 | Plant response rating, Sunflower (Sunflower [18]): 40 | Plant response rating (0 to 100), Nightshade (Nightshade [19]): 100

CCOc1cccc(N2CCC(n3ccc(C(C)(C)C)n3)C2=O)c1 (stereo not shown) [Compound 130]
Plant response rating, Sunflower (Sunflower [1]): 60 | Plant response rating, Nutsedge [2, 20]: 80 | Plant response rating, Nutsedge [2, 21]: 30 | Plant response rating (0 to 100), Nutsedge ([2]; preemergence): 100 | Plant response rating, Nutsedge [2, 22]: 100 | Plant response rating, Corn (corn (Zea mays); [20]): 80 | Plant response rating, Corn (corn (Zea mays); [21]): 40 | Plant response rating (0 to 100), Corn (corn (Zea mays); preemergence): 100 | Plant response rating, Corn (corn (Zea mays); [22]): 90 | Plant response rating, Morningglory [3, 21]: 70 | Plant response rating, Morningglory [3, 22]: 90 | Plant response rating, Sunflower (Sunflower [4]): 60 | Plant response rating, Cupgrass, Woolly [5, 20]: 100 | Plant response rating, Cupgrass, Woolly [5, 21]: 100 | Plant response rating (0 to 100), Cupgrass, Woolly ([5]; preemergence): 100 | Plant response rating, Cupgrass, Woolly [5, 22]: 100 | Plant response rating, Johnsongrass [6, 20]: 90 | Plant response rating, Johnsongrass [6, 21]: 0 | Plant response rating (0 to 100), Johnsongrass ([6]; preemergence): 100 | Plant response rating, Johnsongrass [6, 22]: 100 | Plant response rating, Nightshade (Nightshade [7]; Rate 62 g/ha, scale 0 to 100): 100 | Plant response rating, Nightshade (Nightshade [7]; [20]): 100 | Plant response rating, Nightshade (Nightshade [7]; [23]): 100 | Plant response rating, Kochia (kochia (Kochia scoparia); [20]): 100 | Plant response rating, Kochia (kochia (Kochia scoparia); [21]): 100 | Plant response rating (0 to 100), Kochia (kochia (Kochia scoparia); preemergence): 100 | Plant response rating, Kochia (kochia (Kochia scoparia); [22]): 100 | Plant response rating, Ragweed, Common [8, 20]: 100 | Plant response rating, Ragweed, Common [8, 21]: 100 | Plant response rating (0 to 100), Ragweed, Common ([8]; preemergence): 100 | Plant response rating, Ragweed, Common [8, 22]: 100 | Plant response rating, Soybean (soybean (Glycine max); [20]): 30 | Plant response rating, Soybean (soybean (Glycine max); [21]): 30 | Plant response rating (0 to 100), Soybean (soybean (Glycine max); preemergence): 60 | Plant response rating, Soybean (soybean (Glycine max); [22]): 40 | Plant response rating, Crabgrass [9, 20]: 100 | Plant response rating, Crabgrass [9, 21]: 100 | Plant response rating (0 to 100), Crabgrass ([9]; preemergence): 100 | Plant response rating, Crabgrass [9, 22]: 100 | Plant response rating, Lambsquarters [10, 20]: 100 | Plant response rating, Lambsquarters [10, 21]: 100 | Plant response rating (0 to 100), Lambsquarters ([10]; preemergence): 100 | Plant response rating, Lambsquarters [10, 22]: 100 | Plant response rating, Velvetleaf [11, 20]: 60 | Plant response rating, Velvetleaf [11, 21]: 60 | Plant response rating (0 to 100), Velvetleaf ([11]; preemergence): 60 | Plant response rating, Velvetleaf [11, 22]: 60 | Plant response rating, Bermudagrass [12, 20]: 100 | Plant response rating, Bermudagrass [12, 21]: 100 | Plant response rating (0 to 100 where 0 is no effect and 100 is complete control), Bermudagrass ([12]; preemergence): 100 | Plant response rating, Bermudagrass [12, 22]: 100 | Plant response rating, Cocklebur ([13]; Rate 62 g/ha, scale 0 to 100): 0 | Plant response rating (0 to 100), Cocklebur [13]: 0 | Plant response rating, Cocklebur [13, 23]: 0 | Plant response rating, Surinam grass [14, 20]: 100 | Plant response rating, Surinam grass [14, 21]: 100 | Plant response rating (0 to 100), Surinam grass ([14]; preemergence): 100 | Plant response rating, Surinam grass [14, 22]: 100 | Plant response rating, Pigweed [15, 20]: 100 | Plant response rating, Pigweed [15, 21]: 100 | Plant response rating (0 to 100), Pigweed ([15]; preemergence): 100 | Plant response rating, Pigweed [15, 22]: 100 | Plant response rating, Foxtail, Giant [16, 20]: 100 | Plant response rating, Foxtail, Giant [16, 21]: 90 | Plant response rating (0 to 100), Foxtail, Giant ([16]; preemergence): 100 | Plant response rating, Foxtail, Giant [16, 22]: 100 | Plant response rating, Goosegrass [17, 20]: 100 | Plant response rating, Goosegrass [17, 21]: 100 | Plant response rating (0 to 100), Goosegrass ([17]; preemergence): 100 | Plant response rating, Goosegrass [17, 22]: 100 | Plant response rating, Sunflower (Sunflower [18]): 70 | Plant response rating (0 to 100), Nightshade (Nightshade [19]): 100
